Test results as given in article PMC8855072, “Trypanosoma cruzi Mitochondrial Peroxiredoxin Promotes Infectivity in Macrophages and Attenuates Nifurtimox Toxicity” (Frontiers in Cellular and Infection Microbiology, 2022).

Key:
[1] = biological target: T1, recombinant MPX (rMPX), mitochondrial peroxiredoxin (Trypanosoma cruzi, UniProt O79469); experiment: inhibition of peroxynitrite decomposition (CBA oxidation, fluorescence); SDS-PAGE of non-reducible adducts; assay type: biochemical; details: covalent; 100 µM CA, 1 h with pre-reduced MPX (5 µM), excess removed; SIN-1 as peroxynitrite source; holdase activity not inhibited
T1 construct: His-tagged, expressed in E. coli BL21, nickel column; pre-reduced with DTT, DTT removed
T1 sequence (O79469 entry or part of it): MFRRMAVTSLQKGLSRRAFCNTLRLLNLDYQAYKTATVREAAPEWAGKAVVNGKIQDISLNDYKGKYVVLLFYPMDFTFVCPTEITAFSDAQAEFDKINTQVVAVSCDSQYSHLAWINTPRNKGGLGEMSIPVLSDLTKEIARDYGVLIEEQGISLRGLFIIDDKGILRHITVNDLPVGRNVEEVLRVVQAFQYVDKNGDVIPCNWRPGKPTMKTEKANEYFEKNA

[2] = biological target: T1, recombinant MPX (rMPX), mitochondrial peroxiredoxin; experiment: competition with peroxynitrite-dependent CBA oxidation (fluorescence); assay type: biochemical; details: mere turnover; pre-reduced MPX 5 µM, peroxynitrite flux ~3 µM/min from SIN-1, CBA 50 µM

Row | SMILES | inhibition of peroxynitrite decomposition (CBA oxidation, fluorescence); SDS-PAG [1] | competition with peroxynitrite-dependent CBA oxidation (fluorescence) [2]
1 | [O-][n+]1c(CBr)c(CBr)[n+]([O-])c2ccccc21 [conoidin A] | CA reacts and crosslinks recombinant MPX | –
2 | O=NOO [peroxynitrite] | – | The decomposition of peroxynitrite by MPX reduces the oxidant generation of coumarin
